Legend:
Venturia inaequalis = assay: Venturia test (apple)/protective; format: in vivo; settings: protective, 100 ppm, evaluation 10 days after inoculation
Procedure: Venturia Test (Apple)/Protective [table] To produce a suitable preparation of active compound, 1 part by weight of active compound is mixed with the stated amounts of solvents and emulsifier, and the concentrate is diluted with water to the desired concentration. To test for protective activity, young plants are sprayed with the preparation of active compound at the stated application rate. After the spray coating has dried on, the plants are inoculated with an aqueous conidia suspension of the apple scab pathogen Venturia inaequalis and then remain in an incubation cabin at about 20° C. and 100% relative atmospheric humidity for 1 day. The plants are then placed in a greenhouse at about 21° C. and a relative atmospheric humidity of about 90%.

[1] = logP determination by HPLC (gradient method, 0.08% HCO2H)

**Q.** Which efficacy (Venturia inaequalis) does the source give for CC[C@H](C)[C@@H]1C(=O)O[C@H]1C(=O)NCc1cc(OC)cc(OC)c1 [Example 1, (3S)-(1S-Methylpropyl)-(2R)-(3,5-dimethoxybenzylaminocarbonyl)-4-oxooxetane] here?
**A.** The efficacy was at least 70%.

**Q.** With CC[C@H](C)[C@@H]1C(=O)O[C@H]1C(=O)NCc1ccc(Cl)cc1 [Example 2, (2R,3S)—N-(4-chlorobenzyl)-3-[(1S)-1-methylpropyl]-4-oxooxetane-2-carboxamide] as the compound, how does the chromatographic logP [1] read?
**A.** Its chromatographic logP is 3.04.

**Q.** For CC[C@H](C)[C@@H]1C(=O)O[C@H]1C(=O)Nc1cc(OC)c(OC)c(OC)c1 [Example 3, (2R,3S)-3-[(1S)-1-methylpropyl]-4-oxo-N-(3,4,5-trimethoxyphenyl)oxetane-2-carboxamide], which chromatographic logP [1] is on record?
**A.** Its chromatographic logP is 2.5.
